Test results reported in ChEMBL document CHEMBL1157733, “Isolation, structure, and bioactivities of abiesadines A-Y, 25 new diterpenes from Abies georgei Orr” (Bioorg Med Chem, 2010).
Values after ≈ are worked out from the molar mass of the structure shown.

Assays:
[1] = Inhibition of TNF-alpha-induced NF-kappaB activity in human pNF-kappaB-luc-293 cells; format: cell-based; settings: HEK293
[2] = system: LoVo; assay: Antiproliferative activity against human LoVo cells; format: functional, cell-based
[3] = Antiproliferative activity against human QGY7703 cells; format: functional, cell-based; settings: QGY-7703
[4] = system: RAW264.7; assay: Antiinflammatory activity in mouse RAW264.7 cells assessed as inhibition of LPS-induced NO release; format: functional, cell-based

CC(C)(O)c1ccc2c(c1)[C@H](O)C[C@H]1[C@](C)(C(=O)O)CCC[C@]21C
IC50 [1]: > 100 µg/mL | IC50 [2]: > 25 µg/mL | IC50 [3]: > 25 µg/mL | IC50 [4]: > 100 µg/mL

C=C[C@@](C)(O)CC[C@@H]1[C@@]2(C)CCCC(C)(C)[C@@H]2CC[C@@]1(C)O
IC50 [2]: 13 µg/mL (≈ 42.1 µM) | IC50 [3]: > 25 µg/mL

CC(C)c1cc2c(cc1O)[C@@]1(C)CCC[C@@](C)(C(=O)O)[C@@H]1CC2
IC50 [1]: > 100 µg/mL | IC50 [2]: > 25 µg/mL | IC50 [3]: > 25 µg/mL | IC50 [4]: 63 µg/mL (≈ 199 µM)

C/C(=C\CO)CCC1[C@](C)(O)CC[C@H]2C(C)(C)CCC[C@]12C (stereo partly specified)
IC50 [1]: > 100 µg/mL | IC50 [2]: > 25 µg/mL | IC50 [3]: > 25 µg/mL | IC50 [4]: > 100 µg/mL

C=C[C@@](C)(O)[C@H]1CC2[C@@]3(C)CCCC(C)(C)C3CC[C@@]2(C)O1 (stereo partly specified)
IC50 [1]: 8.7 µg/mL (≈ 28.4 µM) | IC50 [2]: 23.1 µg/mL (≈ 75.4 µM) | IC50 [3]: 15.7 µg/mL (≈ 51.2 µM) | IC50 [4]: 21.6 µg/mL (≈ 70.5 µM)

CC(C)[C@]12C=C3CC[C@H]4[C@](C)(C(=O)O)CCC[C@]4(C)[C@@]3(CC1)OO2
IC50 [1]: > 100 µg/mL | IC50 [2]: > 25 µg/mL | IC50 [3]: > 25 µg/mL | IC50 [4]: > 100 µg/mL

CC(C)C1=CC2=CC[C@H]3[C@](C)(COC(=O)CCC(=O)O)CCC[C@]3(C)[C@H]2CC1
IC50 [1]: > 100 µg/mL | IC50 [2]: > 25 µg/mL | IC50 [3]: > 25 µg/mL | IC50 [4]: > 100 µg/mL

CC(C)(O)C1=CC2=CC[C@@H]3[C@](C)(CCC[C@@]3(C)C(=O)O)[C@H]2CC1=O
IC50 [1]: > 100 µg/mL | IC50 [2]: > 25 µg/mL | IC50 [3]: > 25 µg/mL | IC50 [4]: > 100 µg/mL

CC(C)c1ccc2c(c1)C(=O)C[C@H]1[C@](C)(C(=O)O)CCC[C@]21C
IC50 [1]: > 100 µg/mL | IC50 [2]: > 25 µg/mL | IC50 [3]: 10.2 µg/mL (≈ 32.4 µM) | IC50 [4]: > 100 µg/mL

CC(C)(O)c1ccc2c(c1)C(=O)C[C@H]1[C@](C)(C(=O)O)CCC[C@]21C
IC50 [1]: > 100 µg/mL | IC50 [2]: > 25 µg/mL | IC50 [3]: > 25 µg/mL | IC50 [4]: 44 µg/mL (≈ 133 µM)

CC(C)c1ccc2c(c1)[C@@H](O)C[C@H]1[C@](C)(CO)CCC[C@]21C
IC50 [1]: > 100 µg/mL | IC50 [2]: > 25 µg/mL | IC50 [3]: > 25 µg/mL | IC50 [4]: > 100 µg/mL

CC(C)(O)c1ccc2c(c1)CC[C@H]1[C@](C)(C(=O)O)CCC[C@]21C
IC50 [1]: > 100 µg/mL | IC50 [2]: > 25 µg/mL | IC50 [3]: > 25 µg/mL | IC50 [4]: 76.4 µg/mL (≈ 241 µM)

CC(C)c1ccc2c(c1)C(=O)C[C@H]1[C@](C)(CO)CCC[C@]21C
IC50 [1]: > 100 µg/mL | IC50 [2]: > 25 µg/mL | IC50 [3]: > 25 µg/mL | IC50 [4]: > 100 µg/mL

CC(C)c1ccc2c(c1)CC[C@H]1[C@](C)(COC(=O)CCC(=O)O)CCC[C@]21C
IC50 [1]: > 100 µg/mL | IC50 [2]: > 25 µg/mL | IC50 [3]: > 25 µg/mL | IC50 [4]: > 100 µg/mL

CC(C)c1ccc2c(c1)[C@H](O)C[C@H]1[C@](C)(CO)CCC[C@]21C
IC50 [1]: > 100 µg/mL | IC50 [2]: 9.2 µg/mL (≈ 30.4 µM) | IC50 [3]: > 25 µg/mL | IC50 [4]: > 100 µg/mL

CC(C)(O)c1ccc2c(c1)CC[C@H]1[C@](C)(CO)CCC[C@]21C
IC50 [1]: > 100 µg/mL | IC50 [2]: > 25 µg/mL | IC50 [3]: > 25 µg/mL | IC50 [4]: > 100 µg/mL

CC(C)[C@@]12C=C3CC[C@H]4[C@](C)(C(=O)O)CCC[C@]4(C)[C@]3(CC1)OO2
IC50 [1]: > 100 µg/mL | IC50 [2]: > 25 µg/mL | IC50 [3]: > 25 µg/mL | IC50 [4]: > 100 µg/mL

C=C/C(C)=C\CC1[C@](C)(O)CC[C@H]2C(C)(C)CCC[C@]12C (stereo partly specified)
IC50 [1]: > 100 µg/mL | IC50 [2]: 20.3 µg/mL (≈ 69.9 µM) | IC50 [3]: 25 µg/mL (≈ 86.1 µM) | IC50 [4]: > 100 µg/mL

CC(C)c1ccc2c(c1)[C@H](O)C[C@H]1[C@](C)(C(=O)O)CCC[C@]21C
IC50 [1]: > 100 µg/mL | IC50 [2]: > 25 µg/mL | IC50 [3]: > 25 µg/mL | IC50 [4]: > 100 µg/mL

CC(C)(O)c1ccc2c(c1)[C@@H](O)C[C@H]1[C@](C)(C(=O)O)CCC[C@]21C
IC50 [1]: > 100 µg/mL | IC50 [2]: > 25 µg/mL | IC50 [3]: > 25 µg/mL | IC50 [4]: > 100 µg/mL

CC(C)c1ccc2c(c1)[C@@H](O)C[C@H]1[C@](C)(C(=O)O)CCC[C@]21C
IC50 [1]: > 100 µg/mL | IC50 [2]: > 25 µg/mL | IC50 [3]: > 25 µg/mL | IC50 [4]: > 100 µg/mL

CC(C)/C(C=O)=C\C[C@H]1C(=O)CC[C@@H]2[C@]1(C)CCC[C@@]2(C)C(=O)O [ABIESADINE A]
IC50 [1]: > 100 µg/mL | IC50 [2]: > 25 µg/mL | IC50 [3]: > 25 µg/mL | IC50 [4]: > 100 µg/mL

CC(C)c1ccc(O)c(CC[C@@H]2[C@@](C)(O)CCC[C@@]2(C)C(=O)O)c1 [ABIESADINE B]
IC50 [1]: > 100 µg/mL | IC50 [2]: > 25 µg/mL | IC50 [3]: > 25 µg/mL | IC50 [4]: > 100 µg/mL

CC(C)[C@]12O[C@H]1CC1[C@@]3(C)CCC[C@@](C)(C(=O)O)[C@@H]3CC[C@@]1(O)[C@H]2O (stereo partly specified) [ABIESADINE C]
IC50 [1]: > 100 µg/mL | IC50 [2]: > 25 µg/mL | IC50 [3]: > 25 µg/mL | IC50 [4]: > 100 µg/mL

CC(C)[C@]12CC[C@@]3(O1)[C@@]1(C)CCC[C@@](C)(C(=O)O)[C@@H]1CC[C@]3(O)[C@H]2O [ABIESADINE D]
IC50 [1]: > 100 µg/mL | IC50 [2]: > 25 µg/mL | IC50 [3]: > 25 µg/mL | IC50 [4]: > 100 µg/mL

CC(C)C1=CC[C@H]2C(=C1)C(=O)C[C@@H]1[C@]2(C)CCC[C@@]1(C)C(=O)O [ABIESADINE E]
IC50 [1]: > 100 µg/mL | IC50 [2]: > 25 µg/mL | IC50 [3]: > 25 µg/mL | IC50 [4]: > 100 µg/mL

CC(C)c1ccc2c(c1)[C@H](O)C[C@H]1[C@](C)(COC(=O)CCC(=O)O)CCC[C@]21C [ABIESADINE F]
IC50 [1]: > 100 µg/mL | IC50 [2]: > 25 µg/mL | IC50 [3]: > 25 µg/mL | IC50 [4]: > 100 µg/mL

CO[C@@H]1C[C@H]2[C@](C)(COC(=O)CCC(=O)O)CCC[C@]2(C)c2ccc(C(C)C)cc21 [ABIESADINE G]
IC50 [1]: > 100 µg/mL | IC50 [2]: > 25 µg/mL | IC50 [3]: > 25 µg/mL | IC50 [4]: > 100 µg/mL

COC(=O)CCC(=O)OC[C@]1(C)CCC[C@]2(C)c3ccc(C(C)C)cc3[C@H](O)C[C@@H]12 [ABIESADINE H]
IC50 [1]: > 100 µg/mL | IC50 [2]: > 25 µg/mL | IC50 [3]: > 25 µg/mL | IC50 [4]: 83.4 µg/mL (≈ 200 µM)

CC(C)(O)c1ccc2c(c1)CC[C@H]1[C@](C)(COC(=O)CCC(=O)O)CCC[C@]21C [ABIESADINE I]
IC50 [1]: > 100 µg/mL | IC50 [2]: > 25 µg/mL | IC50 [3]: > 25 µg/mL | IC50 [4]: > 100 µg/mL

COC(C)(C)c1ccc2c(c1)CC[C@H]1[C@](C)(COC(=O)CCC(=O)O)CCC[C@]21C [ABIESADINE J]
IC50 [1]: > 100 µg/mL | IC50 [2]: > 25 µg/mL | IC50 [3]: > 25 µg/mL | IC50 [4]: > 100 µg/mL

COC(=O)CCC(=O)OC[C@]1(C)CCC[C@]2(C)c3ccc(C(C)(C)O)cc3CC[C@@H]12 [ABIESADINE K]
IC50 [1]: > 100 µg/mL | IC50 [2]: > 25 µg/mL | IC50 [3]: > 25 µg/mL | IC50 [4]: 52.1 µg/mL (≈ 125 µM)

CC(C)(O)c1ccc2c(c1)[C@H](O)C[C@H]1[C@](C)(COC(=O)CCC(=O)O)CCC[C@]21C [ABIESADINE L]
IC50 [1]: > 100 µg/mL | IC50 [2]: > 25 µg/mL | IC50 [3]: > 25 µg/mL | IC50 [4]: > 100 µg/mL

COC(C)(C)c1ccc2c(c1)[C@H](O)C[C@H]1[C@](C)(COC(=O)CCC(=O)O)CCC[C@]21C [ABIESADINE M]
IC50 [1]: > 100 µg/mL | IC50 [2]: > 25 µg/mL | IC50 [3]: > 25 µg/mL | IC50 [4]: > 100 µg/mL

COC(C)(C)c1ccc2c(c1)CC[C@H]1[C@](C)(C(=O)O)CCC[C@]21C [ABIESADINE N]
IC50 [1]: > 100 µg/mL | IC50 [2]: > 25 µg/mL | IC50 [3]: > 25 µg/mL | IC50 [4]: > 100 µg/mL

COc1cccc2c1C(=O)c1c(O)c3c(c(O)c1C2=O)C[C@@](O)(C(=O)CO)C[C@@H]3O[C@H]1C[C@H](N)[C@H](O)[C@H](C)O1 [DOXORUBICIN]
IC50 [2]: 0.55 µg/mL (≈ 1.01 µM) | IC50 [3]: 0.42 µg/mL (≈ 0.773 µM)

N=C(N)NN [PIMAGEDINE]
IC50 [4]: 3.3 µg/mL (≈ 44.5 µM)
